Paper PMC5459956 (International Journal of Nanomedicine, 2017)
pIC50: −log10 of the molar value.

Assays:
[1] = tested on: ROS generation in MV-4–11 cells; assay: Reactive oxygen species assay; format: cell-based; conditions: 4 h, Cu(DDC)2 200 µM, menadione 50 µM, versus cell-free condition
[2] = tested on: healthy bronchial epithelial cells; conditions: in vitro; cited from earlier work
MV-4–11 cells = assay: MV-4–11 cytotoxicity assay; format: cell-based; conditions: read-out: 72-h IC50, 72 h exposure, PrestoBlue
[3] = cited from earlier work

Row | SMILES | ROS generation [1] | effect in healthy bronchial epithelial cells [2] | pIC50 (MV-4–11 cells) | solubility (slightly soluble precipitate) [3]
1 | CC1=CC(=O)c2ccccc2C1=O [Menadione, menadione] | ROS formation in the cells was evident | – | – | –
2 | CCN(CC)C(=S)[S-].CCN(CC)C(=S)[S-].[Cu+2] [Cu(DDC)2, Copper diethyldithiocarbamate] | – | did not have any effect | ~6.96 | < 100 µg/mL
